Drawing on ChEMBL document CHEMBL1131907, “Novel synthetic oleanane triterpenoids: a series of highly active inhibitors of nitric oxide production in mouse macrophages” (Bioorg Med Chem Lett, 1999), this text covers IC50 for 26 compounds.

What all share (format): functional, organism-based
The species named for assay [1] is Mus musculus. Briefly: Inhibitory activity against production of nitric oxide induced by interferon-gamma in mouse macrophages.
The species named for assay [2] is Mus musculus. Briefly: Inhibitory activity against production of nitric oxide (NO) induced by interferon-gamma (IFN-gamma) in mouse macrophages above 1 uM concentration; Toxic.
The species named for assay [3] is Mus musculus. Briefly: Inhibitory activity against production of nitric oxide (NO) induced by interferon-gamma (IFN-gamma) in mouse macrophages below 1 uM concentration; Inactive.

In general, IC50 refers to the concentration that gives 50% inhibition. High values mean weaker potency in that assay, low ones greater potency in that assay.

Take `COC(=O)C1=C[C@]2(C)C3=CC(=O)C4C5CC(C)(C)CC[C@]5(C(=O)O)CC[C@@]4(C)[C@]3(C)CC[C@H]2C(C)(C)C1=O` (some centres undefined): half-maximal inhibition in assay [1] (IC50) required 0.1 µM. In assay [1], `COC(=O)[C@]12CCC(C)(C)CC1C1=CC(=O)[C@@H]3[C@@]4(C)C=C(C#N)C(=O)C(C)(C)[C@@H]4CC[C@@]3(C)[C@]1(C)CC2` (some centres undefined) registered an IC50 of 0.02 µM. `CC1(C)CC[C@]2(C(=O)O)CC[C@]3(C)C(=C2C1)CC(=O)[C@@H]1[C@@]2(C)C=C(C#N)C(=O)C(C)(C)[C@@H]2CC[C@]13C` returned an IC50 in assay [1] of 0.07 µM.

`CC1(C)CC[C@]2(C(=O)O)CC[C@]3(C)[C@H](C(=O)C=C4[C@@]5(C)C=CC(=O)C(C)(C)[C@@H]5CC[C@]43C)[C@@H]2C1`: the IC50 in assay [1] amounted to 0.2 µM. Still for that read-out and setting: for `COC(=O)[C@]12CCC(C)(C)CC1C1=CC[C@@H]3[C@@]4(C)C=C(C(N)=O)C(=O)C(C)(C)[C@@H]4CC[C@@]3(C)[C@]1(C)CC2` (some centres undefined) the value was 14 µM. For `CC1(C)CC[C@]2(C(=O)O)CC[C@]3(C)C(=CC[C@@H]4[C@@]5(C)C=C(C=O)C(=O)C(C)(C)[C@@H]5CC[C@]43C)C2C1` (some centres undefined), the IC50 result in assay [2] was “Toxic”; in assay [3], “Not Active”. In assay [1], `COC(=O)[C@]12CCC(C)(C)CC1C1=CC[C@@H]3[C@@]4(C)C=C(C(=O)O)C(=O)C(C)(C)[C@@H]4CC[C@@]3(C)[C@]1(C)CC2` (some centres undefined) yielded an IC50 of 0.8 µM. Compound `COC(=O)C1=C[C@]2(C)[C@H]3CC=C4C5CC(C)(C)CC[C@]5(C(=O)O)CC[C@@]4(C)[C@]3(C)CC[C@H]2C(C)(C)C1=O` (some centres undefined) came in with an IC50 in assay [1] of 2.2 µM. The compound `CC1(C)CC[C@]2(C(=O)O)CC[C@]3(C)C(=CC[C@@H]4[C@@]5(C)C=C(Br)C(=O)C(C)(C)[C@@H]5CC[C@]43C)C2C1` (some centres undefined) had an IC50 in assay [1] of 7.3 µM.

As to `COC(=O)C1=C[C@]2(C)C3=CC(=O)C4C5CC(C)(C)CC[C@]5(C(=O)OC)CC[C@@]4(C)[C@]3(C)CC[C@H]2C(C)(C)C1=O` (some centres undefined), the IC50 entry is listed as “Toxic” in assay [2] and “Not Active” in assay [3]. Turning to `CC1(C)CC[C@]2(C(=O)O)CC[C@]3(C)C(=CC(=O)[C@@H]4[C@@]5(C)C=C(C#N)C(=O)C(C)(C)[C@@H]5CC[C@]43C)C2C1` (some centres undefined), in assay [1], the IC50 was 0.04 µM. `CC1(C)CC[C@]2(C(=O)O)CC[C@]3(C)C(C(=O)C=C4[C@@]5(C)C=C(C(=O)O)C(=O)C(C)(C)[C@@H]5CC[C@]43C)C2C1` (some centres undefined) showed an IC50 in assay [1] of 0.2 µM.

As for `CC1(C)CC[C@]2(C(=O)O)CC[C@]3(C)C(=CC[C@@H]4[C@@]5(C)C=CC(=O)C(C)(C)[C@@H]5CC[C@]43C)C2C1` (some centres undefined), the midpoint of inhibition in assay [1], the IC50, lay at 5.6 µM.

`COC(=O)[C@]12CCC(C)(C)CC1C1=CC[C@@H]3[C@@]4(C)C=C(Cl)C(=O)C(C)(C)[C@@H]4CC[C@@]3(C)[C@]1(C)CC2` (some centres undefined): the IC50 in assay [1] is > 40 µM. In the case of `COC(=O)C1=C[C@]2(C)[C@H]3CC=C4C5CC(C)(C)CC[C@]5(C(=O)OC)CC[C@@]4(C)[C@]3(C)CC[C@H]2C(C)(C)C1=O` (some centres undefined), it took 0.9 µM to reach half-maximal inhibition in assay [1] (IC50). For `COC(=O)[C@]12CCC(C)(C)CC1C1=CC[C@@H]3[C@@]4(C)C=C(Br)C(=O)C(C)(C)[C@@H]4CC[C@@]3(C)[C@]1(C)CC2` (some centres undefined), the IC50 in assay [1] is > 40 µM.

In the case of `CC1(C)CC[C@]2(C(=O)O)CC[C@]3(C)C(=CC[C@@H]4[C@@]5(C)C=C(Cl)C(=O)C(C)(C)[C@@H]5CC[C@]43C)C2C1` (some centres undefined), the IC50 in assay [1] was > 40 µM. In the case of `CC1(C)CC[C@]2(C(=O)O)CC[C@]3(C)C(=CC[C@@H]4[C@@]5(C)C=C(C(=O)O)C(=O)C(C)(C)[C@@H]5CC[C@]43C)C2C1` (some centres undefined), in assay [1], the concentration for half-maximal inhibition (IC50) was found to be 0.07 µM. With `COC(=O)[C@]12CCC(C)(C)CC1C1=CC[C@@H]3[C@@]4(C)C=C(C#N)C(=O)C(C)(C)[C@@H]4CC[C@@]3(C)[C@]1(C)CC2` (some centres undefined), in assay [1], inhibition was half-maximal at 0.7 µM (IC50).

For `COC(=O)[C@]12CCC(C)(C)CC1C1=CC[C@@H]3[C@@]4(C)C=C(C=O)C(=O)C(C)(C)[C@@H]4CC[C@@]3(C)[C@]1(C)CC2` (some centres undefined), the IC50 result in assay [2] is “Toxic”; in assay [3] it was “Not Active”. In assay [1], `COC(=O)[C@]12CCC(C)(C)CC1C1C(=O)C=C3[C@@]4(C)C=C(C(=O)O)C(=O)C(C)(C)[C@@H]4CC[C@@]3(C)[C@]1(C)CC2` (some centres undefined) registered an IC50 of 0.0008 µM. The compound `C[C@]12CCC(=O)C=C1CCC1[C@@H]2[C@@H](O)C[C@@]2(C)[C@H]1CC[C@]2(O)C(=O)CO` (single isomer, unassigned) [HYDROCORTISONE] returned an IC50 in assay [1] of 0.01 µM.

In assay [1], `COC(=O)[C@]12CCC(C)(C)C[C@H]1[C@H]1C(=O)C=C3[C@@]4(C)C=C(C#N)C(=O)C(C)(C)[C@@H]4CC[C@@]3(C)[C@]1(C)CC2` [BARDOXOLONE METHYL] yielded an IC50 of 0.0001 µM. Regarding `CC1(C)CC[C@]2(C(=O)O)CC[C@]3(C)[C@H](C(=O)C=C4[C@@]5(C)C=C(C#N)C(=O)C(C)(C)[C@@H]5CC[C@]43C)[C@@H]2C1` [BARDOXOLONE], the IC50 in assay [1] came to 0.0002 µM.

`C[C@@H]1C[C@H]2[C@@H]3CCC4=CC(=O)C=C[C@]4(C)[C@@]3(F)[C@@H](O)C[C@]2(C)[C@@]1(O)C(=O)CO` [DEXAMETHASONE] displayed an IC50 in assay [1] of 0.0001 µM.

Consider `CC1(C)CC[C@]2(C(=O)O)CC[C@]3(C)C(=CC[C@@H]4[C@@]5(C)CC[C@H](O)C(C)(C)[C@@H]5CC[C@]43C)[C@@H]2C1` [OLEANOLIC_ACID], for which, in assay [1], the IC50 is > 40 µM.
